This note sets out measurements from ChEMBL document CHEMBL1201862, “PubChem BioAssay data set” (2004).

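1) Cells in 96-well plates. 2) Compound, 48 h, 5 concentrations. 3) Linear interpolation between surrounding doses. 4) Unreached endpoint = highest concentration. Abbreviation: GI50, concentration required for 50% inhibition of growth.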 The source made the active and inactive calls. Rule as the data show it: active = GI50 up to about 1.1 µM and inactive = higher. Where a SMILES comes first, the peptide text is derived from it. [ ]: non-standard residue; d: D form. The star is where a group is joined. mTyr = N[CH](Cc1cccc(O)c1)C(=O)O; Cbz = O=C(OCc1ccccc1)*; OBn = c1ccc(CO*)cc1 A value given as a limit tells only on which side of the number the result lay.

Test systems include CCRF-CEM; Hs-578T; OVCAR-5; T47D; M14; A498; NCI-H522; UACC-257; HOP-92; SK-MEL-5; U-251; SK-MEL-28; HCT-15; RXF 393; COLO 205; HT-29; PC-3; NCI-H226; SNB-19; NCI/ADR-RES.
Common to all, as to experiment: NCI anticancer screen, dose series, 48 h

Regarding `COc1ccccc1NC(=O)C(C#N)=C(SC)SC`, the GI50 in the test on CCRF-CEM was 89.5 µM (inactive); with Hs-578T, > 100 µM (inactive); in the test with OVCAR-5, > 100 µM (inactive); in the test on T47D, 30.2 µM (inactive); in the test with M14, > 100 µM (inactive); in the test on A498 it was > 100 µM (inactive). Also, the GI50 in the test with NCI-H522 was > 100 µM (inactive); in the test on UACC-257, > 100 µM (inactive); in the test with HOP-92 it was 32.3 µM (inactive); with SK-MEL-5, > 100 µM (inactive); in the test on U-251, > 100 µM (inactive); in the test on SK-MEL-28, > 100 µM (inactive). For the same molecule, the GI50 in the test on HCT-15 is above 100 µM; in the test on RXF 393, > 100 µM (inactive); in the test with COLO 205, > 100 µM (inactive); with HT-29, > 100 µM (inactive); in the test with PC-3, > 100 µM (inactive); in the test on NCI-H226, > 100 µM (inactive). Besides, the GI50 in the test with SNB-19 was > 100 µM (inactive).

In the case of `CCCCCCn1c(SC)nc(COC(=O)NC)c1COC(=O)NC`, the GI50 is > 10 µM (inactive) in the test with CCRF-CEM; 20.4 µM (inactive) in the test on Hs-578T; 19.9 µM (inactive) in the test on OVCAR-5; 25.5 µM (inactive) in the test on NCI/ADR-RES; 17.7 µM (inactive) in the test on T47D; 21.3 µM (inactive) in the test with M14. The GI50 is 16.3 µM (inactive) with A498; 11.4 µM (inactive) in the test with NCI-H522; 19.4 µM (inactive) with UACC-257; 16.6 µM (inactive) in the test on SK-MEL-5; 17.7 µM (inactive) in the test with SK-MEL-28; 32.4 µM in the test with HCT-15. Also, the GI50 with COLO 205 was 15.8 µM (inactive); in the test with HT-29 it was 20 µM (inactive); in the test on PC-3 it was 15.1 µM (inactive); with NCI-H226 it was 17.2 µM (inactive); with SNB-19 it was 16.1 µM (inactive).

In the case of `CN1CCN(c2nc3cc(F)ccc3n3cccc23)CC1`, the GI50 is 29.8 µM (inactive) with CCRF-CEM; 31.4 µM (inactive) in the test with Hs-578T; 51.2 µM (inactive) in the test on OVCAR-5; 50.7 µM (inactive) in the test on NCI/ADR-RES; 29 µM (inactive) in the test with T47D; 18 µM (inactive) in the test on M14. Moreover, the GI50 in the test on NCI-H522 was 46.5 µM (inactive); in the test on UACC-257 it was 26.6 µM (inactive); in the test on HOP-92 it was 30.2 µM (inactive); in the test with SK-MEL-5, 20.6 µM (inactive); in the test with U-251, 41.5 µM (inactive); with SK-MEL-28 it was 21.4 µM (inactive). The GI50 in the test on HCT-15 is 32.1 µM; in the test on RXF 393, 23.4 µM (inactive); with COLO 205, 26.9 µM (inactive); in the test on HT-29, 24.9 µM (inactive); in the test with PC-3, 28.4 µM (inactive); in the test with NCI-H226, 13.7 µM (inactive). Further, the GI50 in the test with SNB-19 was 60.3 µM (inactive).

Regarding `O=C(O)CC[N+]1=CCC(c2ccccc2)(c2ccccc2)O1`, the GI50 in the test with Hs-578T, in the test with OVCAR-5, in the test with T47D, in the test with M14, in the test on A498 and in the test on NCI-H522 was > 100 µM (inactive) throughout. Also, the GI50 is > 100 µM (inactive) with UACC-257; > 100 µM (inactive) with HOP-92; > 100 µM (inactive) in the test with SK-MEL-5; > 100 µM (inactive) in the test with U-251; > 100 µM (inactive) in the test on SK-MEL-28; above 100 µM in the test with HCT-15. Also, the GI50 in the test on RXF 393, in the test with COLO 205, with HT-29, in the test with PC-3, with NCI-H226 and in the test with SNB-19 was > 100 µM (inactive) each time.

Regarding `COC(=O)CNC(=O)Nc1cc(N2C(=O)ON3C2C(C)(C)N(O)C3(C)C)ccc1C` (stereo not drawn), the GI50 with CCRF-CEM, in the test on Hs-578T, in the test with OVCAR-5, in the test on NCI/ADR-RES, in the test with T47D and in the test on M14 was > 100 µM (inactive) throughout. For the same molecule, the GI50 with NCI-H522 is > 100 µM (inactive); in the test with UACC-257, > 100 µM (inactive); in the test on SK-MEL-5 it was > 100 µM (inactive); in the test with U-251 it was > 100 µM (inactive); in the test with SK-MEL-28, > 100 µM (inactive); in the test on HCT-15, 66.5 µM. The GI50 in the test on RXF 393, in the test on COLO 205, in the test on HT-29, with PC-3, in the test with NCI-H226 and in the test on SNB-19 was > 100 µM (inactive) each time.

`COC(=O)C(Cc1cccc(O)c1)NC(=O)C(CC(=O)OCc1ccccc1)NC(=O)OCc1ccccc1` (stereo not drawn) (Cbz-Asp(OBn)-[mTyr]-OMe; configuration not given here): the GI50 is > 100 µM (inactive) with Hs-578T; > 100 µM (inactive) in the test on OVCAR-5; 15.9 µM (inactive) in the test on T47D; > 100 µM (inactive) with M14; > 100 µM (inactive) in the test on A498; > 100 µM (inactive) in the test on UACC-257. Also, the GI50 is 29.1 µM (inactive) in the test on HOP-92; > 100 µM (inactive) with SK-MEL-5; > 100 µM (inactive) with U-251; > 100 µM (inactive) in the test on SK-MEL-28; above 100 µM with HCT-15; > 100 µM (inactive) in the test with RXF 393. The GI50 with COLO 205 is > 100 µM (inactive); in the test on HT-29, 88.5 µM (inactive); in the test with PC-3, > 100 µM (inactive); with NCI-H226, > 100 µM (inactive); in the test with SNB-19, 65.8 µM (inactive).

Take `O=C(O)CNn1c(SCC(=O)O)nnc(/C=C/c2c(O)ccc3ccccc23)c1=O`: the GI50 was 3.57 µM (inactive) in the test on CCRF-CEM; 12.8 µM (inactive) in the test with Hs-578T; 28.5 µM (inactive) in the test on OVCAR-5; 15 µM (inactive) with NCI/ADR-RES; 19.5 µM (inactive) in the test on T47D; 17.1 µM (inactive) in the test with M14. In addition, the GI50 is 32.7 µM (inactive) with A498; 29.8 µM (inactive) in the test with NCI-H522; 35.9 µM (inactive) in the test with UACC-257; 18.7 µM (inactive) in the test on SK-MEL-5; 35.3 µM (inactive) in the test with U-251; 34.3 µM (inactive) in the test on SK-MEL-28. Also, the GI50 in the test on HCT-15 was 17.6 µM; in the test on COLO 205, 34.4 µM (inactive); in the test on HT-29, 41.9 µM (inactive); in the test on PC-3 it was 77.3 µM (inactive); in the test with SNB-19 it was 64.7 µM (inactive).

Turning to `CC(C)OCC(O)COc1ccc2ccc(=O)oc2c1` (stereo not drawn), the GI50 in the test with CCRF-CEM, in the test on Hs-578T, with OVCAR-5, in the test on NCI/ADR-RES, with T47D and in the test with M14 was > 100 µM (inactive) each time. Besides, the GI50 in the test on NCI-H522, in the test on UACC-257, in the test on HOP-92, in the test with SK-MEL-5, in the test on U-251 and in the test on SK-MEL-28 was > 100 µM (inactive) each time. The GI50 was above 100 µM with HCT-15; > 100 µM (inactive) with COLO 205; > 100 µM (inactive) in the test on HT-29; > 100 µM (inactive) in the test on PC-3; > 100 µM (inactive) in the test with SNB-19.

With `CCCCCCC(O)C(=O)OC1C2C(CC1(C)C)C(O)C13OC1C(O)C1(CO1)[C@@]23C` (stereo partly drawn), the GI50 with CCRF-CEM was 27.5 µM (inactive); in the test on Hs-578T, 28.2 µM (inactive); in the test on OVCAR-5, > 100 µM (inactive); with NCI/ADR-RES, > 100 µM (inactive); in the test on T47D, 62.5 µM (inactive); in the test with M14, 40.6 µM (inactive). For the same molecule, the GI50 in the test with NCI-H522 is 61.1 µM (inactive); with UACC-257, 42.3 µM (inactive); with SK-MEL-5, 13.4 µM (inactive); in the test with U-251, 37.1 µM (inactive); with SK-MEL-28, 39.3 µM (inactive); with HCT-15, 81.7 µM. For the same molecule, the GI50 with RXF 393 is 23 µM (inactive); in the test on COLO 205, 49.2 µM (inactive); with PC-3, 17.3 µM (inactive); in the test on SNB-19, 65.2 µM (inactive).

For the molecule `CC1=C(N2CC2)C(=O)c2ccccc2C1=O`, the GI50 is 1.19 µM (inactive) in the test on CCRF-CEM; 1.36 µM (inactive) in the test on Hs-578T; 0.402 µM (active) in the test on OVCAR-5; 1.06 µM (active) in the test on NCI/ADR-RES; 13.1 µM (inactive) in the test on T47D; 1.22 µM (inactive) in the test with M14. For the same molecule, the GI50 was 0.444 µM (active) in the test with NCI-H522; 0.327 µM (active) in the test with UACC-257; 0.164 µM (active) with SK-MEL-5; 0.895 µM (active) with U-251; 1.85 µM (inactive) with SK-MEL-28; 1.05 µM in the test on HCT-15. The GI50 with RXF 393 is 0.422 µM (active); in the test with COLO 205 it was 0.762 µM (active); with HT-29 it was 0.394 µM (active); with PC-3, 0.897 µM (active); in the test on NCI-H226 it was 2.06 µM (inactive); with SNB-19, 1.21 µM (inactive).

As for `CCN(CC)CCOCCn1c2c(c3ccccc31)CCCC2`, the GI50 in the test with CCRF-CEM is 18.8 µM (inactive); with Hs-578T it was 20 µM (inactive); in the test on OVCAR-5, 23.3 µM (inactive); in the test on NCI/ADR-RES, 12.7 µM (inactive); in the test with T47D it was 20.6 µM (inactive); in the test on M14, 16.9 µM (inactive). For the same molecule, the GI50 in the test with UACC-257 is 21.9 µM (inactive); in the test with HOP-92 it was 20.9 µM (inactive); in the test on SK-MEL-5 it was 13.5 µM (inactive); in the test with U-251, 17.2 µM (inactive); with SK-MEL-28, 17 µM (inactive); with HCT-15 it was 16.3 µM. Besides, the GI50 was 17.7 µM (inactive) with COLO 205, 23.7 µM (inactive) with HT-29, 17.8 µM (inactive) in the test on PC-3 and 26.4 µM (inactive) in the test with NCI-H226.

For `CC(C)COP(C)(=O)C(N)(C(F)(F)F)C(F)(F)F` (stereo not drawn), the GI50 in the test on CCRF-CEM was 88.1 µM (inactive); in the test on Hs-578T, > 100 µM (inactive); in the test with OVCAR-5, > 100 µM (inactive); in the test with NCI/ADR-RES it was > 100 µM (inactive); in the test on T47D it was > 100 µM (inactive); with M14, > 100 µM (inactive). Besides, the GI50 in the test on UACC-257 is > 100 µM (inactive); in the test with HOP-92, > 100 µM (inactive); in the test with SK-MEL-5, > 100 µM (inactive); with U-251, > 100 µM (inactive); with SK-MEL-28, > 100 µM (inactive); in the test on HCT-15, above 100 µM. Also, the GI50 with COLO 205, in the test on HT-29, with PC-3 and in the test on NCI-H226 was > 100 µM (inactive) throughout.
